ChEMBL document CHEMBL1129457, “Indole inhibitors of human nonpancreatic secretory phospholipase A2. 1. Indole-3-acetamides” (J Med Chem, 1996)

Assays:
[1] = biological target: T1, Phospholipase A2, membrane associated (Homo sapiens, UniProt P14555); experiment: Inhibition of Human Nonpancreatic Secretory Phospholipase A2 through Chromogenic assay; assay type: functional
T1 sequence (P14555 whole entry): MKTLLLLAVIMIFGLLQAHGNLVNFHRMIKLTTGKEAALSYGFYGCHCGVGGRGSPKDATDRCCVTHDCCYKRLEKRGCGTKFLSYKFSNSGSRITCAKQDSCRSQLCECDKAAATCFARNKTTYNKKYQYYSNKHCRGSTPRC

[2] = species: Cavia porcellus; experiment: Inhibition of AA (arachidonic acid) - induced contraction of GP lung tissue (n=4).; assay type: functional
[3] = biological target: T2, Phospholipase A2, membrane associated (Homo sapiens) (UniProt P14555); experiment: Inhibition of PLA2 induced contraction of GP lung tissue (Guinea pig) (n=4); assay type: functional, tissue-based; conditions: Cavia porcellus, target entry is the homologue from another species
T2 sequence (whole entry): T1 sequence (P14555 whole entry)

[4] = biological target: T2, Phospholipase A2, membrane associated (Homo sapiens); experiment: Mole fraction as PLA2 IC50 concentration divided by total lipid concentration (1230 uM); assay type: functional
[5] = biological target: T2, Phospholipase A2, membrane associated (Homo sapiens); experiment: Inhibition of Human Nonpancreatic Secretory PLA2 through Chromogenic assay at 47ug/mL; assay type: functional

Compound | IC50 [1] | Kb [3] | other results
CCc1c(C(=O)C(N)=O)c2cc(OC)ccc2n1Cc1ccccc1 | 2.56 µM |  | 
COC(=O)Cc1c(C)n(Cc2ccccc2)c2ccc(OC)cc12 | 116 µM |  | 
CCc1c(C(=O)C(N)=O)c2c(OC)cccc2n1Cc1ccccc1 | 0.55 µM |  | 
COc1ccc2c(c1)c(C(=O)C(N)=O)c(C)n2Cc1ccccc1 | 1.23 µM |  | 
CCCc1c(CC(=O)NN)c2cc(OC)ccc2n1Cc1ccccc1 |  | 27.1 µM | ED50 [2]: >30 µM
COc1ccc2c(c1)c(CC(=O)NN)c(C)n2Cc1cccc(Cl)c1 | 1.36 µM | 1.13 µM | ED50 [2]: >30 µM
COc1ccc2c(c1)c(CCC(N)=O)c(C)n2Cc1ccccc1 | 28.1 µM |  | 
COc1cccc2c1c(CC(=O)NN)c(C)n2Cc1cccc(Cl)c1 | 0.23 µM |  | 
COc1ccc2c(c1)c(CC(=O)NN)c(Cl)n2Cc1ccccc1 |  | 0.85 µM | ED50 [2]: 9.37 µM
COc1ccc2c(c1)c(CC(=O)NN)c(C)n2Cc1cccc(-c2ccccc2)c1 |  | 22.6 µM | 
COc1ccc2c(c1)c(CC(=O)NN)c(C)n2Cc1ccccc1-c1ccccc1 |  | > 10 µM | ED50 [2]: >10 µM
COc1ccc2c(c1)c(CC(N)=O)c(C)n2Cc1cccc(Cl)c1 | 0.91 µM |  | 
Cc1c(CC(=O)NN)c2cc(C(=O)O)ccc2n1Cc1cccc(Cl)c1 |  | 1.39 µM | ED50 [2]: >30 µM
COc1ccc2c(c1)c(CC(=O)NN)c(C)n2Cc1cccc(OCc2ccccc2)c1 |  | 3.86 µM | ED50 [2]: >30 µM
CCc1c(CC(N)=O)c2cc(OC)ccc2n1Cc1ccccc1 |  | 5.91 µM | ED50 [2]: >30 µM
COc1ccc2c(c1)c(CC(N)=O)c(C)n2C(=O)c1ccccc1 | 7.21 µM |  | 
COc1cccc(Cn2c(C)c(CC(=O)NN)c3cc(OC)ccc32)c1 | 2.12 µM |  | 
CCC(C(=O)NN)c1c(C)n(Cc2ccccc2)c2ccc(OC)cc12 (stereo unspecified) | 24.2 µM |  | 
CNC(=O)Cc1c(C)n(Cc2ccccc2)c2ccc(OC)cc12 | 142 µM |  | 
COc1ccc2c(c1)c(CC(=O)NN)c(C1CC1)n2Cc1ccccc1 | 0.39 µM |  | 
COc1ccc2c(c1)c(CC(=O)O)c(C)n2Cc1ccccc1 | 13.6 µM |  | 
CCc1c(CC(N)=O)c2c(OC)cccc2n1Cc1ccccc1 | 1.18 µM |  | 
COc1ccc2c(c1)c(C(C)C(=O)NN)c(C)n2Cc1ccccc1 (stereo unspecified) | 32.6 µM |  | 
CCc1c(CC(=O)NN)c2cc(OC)ccc2n1Cc1ccccc1 |  | 2.04 µM | ED50 [2]: >30 µM
CCCCCCC(C(=O)NN)c1c(C)n(Cc2ccccc2)c2ccc(OC)cc12 (stereo unspecified) | 101 µM |  | 
COc1ccc2c(c1)c(CC(=O)NN)c(C)n2C(c1ccccc1)c1ccccc1 | 40.2 µM |  | 

Compound | IC50 [1] | Kb [3] | other results
CCc1c(C(=O)C(N)=O)c2c([N+](=O)[O-])cccc2n1Cc1ccccc1 | 37.8 µM |  | 
COc1ccc2c(c1)c(CC(=O)NN)c(Br)n2Cc1ccccc1 |  | 0.76 µM | ED50 [2]: 7.32 µM
COc1ccc2c(c1)c(CC(N)=O)c(SC)n2Cc1ccccc1 | 0.45 µM | 7.93 µM | 
CCCCCCCCCCn1c(C)c(CC(=O)NN)c2cc(OC)ccc21 | 9.43 µM |  | 
COc1ccc2c(c1)c(CC(=N)N)c(C)n2Cc1ccccc1 | 64.7 µM |  | 
Cc1c(CC(=O)NN)c2ccccc2n1-c1ccccc1 | 38.2 µM |  | 
CCc1c(C(O)C(N)=O)c2c(OC)cccc2n1Cc1ccccc1 (stereo unspecified) | 53 µM |  | 
CCCCCCCCCCn1c(C)c(CC(N)=O)c2cc(OC)ccc21 | 9.47 µM |  | 
COc1ccc2c(c1)c(CC(=O)NN)cn2Cc1ccccc1 | 4.9 µM | 5.64 µM | ED50 [2]: >10 µM
COc1ccc2c(c1)c(Cc1nnn[nH]1)c(C)n2Cc1ccccc1 | 84.7 µM |  | 
COc1ccc2c(c1)c(CC(N)=O)c(C)n2CCCc1ccccc1 | 11.1 µM |  | 
COc1ccc2c(c1)c(CC(=O)NN)c(SC)n2Cc1ccccc1 | 0.62 µM |  | 
CCc1c(CC(=O)NN)c2cc(OC)ccc2n1Cc1ccccc1-c1ccccc1 | 2.35 µM | 30.1 µM | ED50 [2]: >30 µM
COc1ccc2c(C(=O)C(N)=O)c(C)n(Cc3ccccc3)c2c1 | 1.77 µM |  | 
COc1cccc2c1c(CC(N)=O)c(C)n2Cc1cccc(Cl)c1 | 1.38 µM |  | 
COc1ccc2c(C(O)C(N)=O)c(C)n(Cc3ccccc3)c2c1 (stereo unspecified) | 121 µM |  | 
COc1cccc2c1c(CC(=O)NN)c(C)n2Cc1ccccc1 | 0.55 µM |  | 
COc1ccc2c(c1)c(CC(=O)NN)c(C)n2Cc1cccc(N)c1 | 4.32 µM |  | 
Cc1c(CC(N)=O)c2cc([N+](=O)[O-])ccc2n1Cc1ccccc1 | 1.51 µM |  | 
Cc1c(CC(N)=O)c2cc(N)ccc2n1Cc1ccccc1 |  | 1.98 µM | ED50 [2]: 14.5 µM
COc1ccc2c(c1)c(CC#N)c(C)n2Cc1ccccc1 |  |  | Mole fraction [4]: Mole fraction as PLA2 IC50 concentration divided by total lipid concentration (1230 uM); inhibition [5]: 45%
CONC(=O)Cc1c(C)n(Cc2ccccc2)c2ccc(OC)cc12 | 40 µM |  | 
COc1ccc2c(c1)c(CC(N)=O)c(C)n2CC1CCCCC1 |  | 22.5 µM | ED50 [2]: 25.65 µM
COc1ccc2c(c1)c(CC(=O)NN)c(C)n2Cc1cccc(O)c1 |  | 5.96 µM | ED50 [2]: >30 µM
COc1ccc2c(c1)c(CC(=N)S)c(C)n2Cc1ccccc1 | 74.1 µM |  | 
COc1ccc2c(c1)c(C(O)C(N)=O)c(C)n2Cc1ccccc1 (stereo unspecified) | 20.1 µM |  | 
